Reference: patent US10183011B2, “Anti-depression compounds” (Board of Regents of the University of Texas System, priority 2009, dated 2019)
“Also recorded” adds a separate entry of the source.

Assays:
U2OS cells = test: Calcium ionophore A23187-induced loss of mitochondrial membrane potential (TMRM dye release); format: cell-based
From the text: FIG. 22A, FIG. 22B, FIG. 22C, FIG. 22D, FIG. 22E and FIG. 22F: Example 45 Compound Preserves Mitochondrial Membrane Potential in Parallel to Proneurogenic Activity U2OS cells were loaded with tetramethylrhodamine methyl ester (TMRM) dye and then exposed to the calcium ionophore A23187 either in the presence or absence of test compounds. Example 45 Compound (FIG. 22A) preserved mitochondrial membrane potential following exposure to the calcium ionophore A23187 in a dose-dependent manner. The protective effect of P7C3 was enantiomeric specific. […] Each compound was evaluated in triplicate with similar results.
Extensive evidence pioneered by the laboratory of Xiaodong Wang has shown that an intrinsic pathway leading to programmed cell death emanates from mitochondria (Liu et al., Cell 1996, 86, 147-157; Yang et al., Science 1997, 275, 1129-1132). With the help of the Wang lab, assays were established to test whether Example 45 Compound might protect mitochondria from calcium-induced dissolution (Distelmaier et al., Cytometry A 2008, 73, 129-138). Tetramethylrhodamine methyl ester (TMRM) is a cell-permeant, cationic red-orange fluorescent dye that is readily sequestered by active mitochondria. When loaded with TMRM dye, vehicle-only treated cells released the dye within 15 minutes of exposure to the calcium ionophore A23187. By contrast, dye release was prevented in cells exposed to as little as […] of Example 45 Compound (FIG. 18A).
Since P7C3 ameliorates the death of newborn neurons in the dentate gyrus in living mice, it is possible that its function might relate to mitochondrial integrity. Assays were established to test whether P7C3 might protect cultured U2OS cells from calcium-induced mitochondrial dissolution (Distelmaier et al., Cytometry A 2008, 73, 129-138). Tetramethylrhodamine methylester (TMRM) dye is sequestered by active mitochondria, and, when loaded with TMRM, vehicle-treated cells released the dye within 15 rain of exposure to the calcium ionophor A23 187.

[1] = system: newborn hippocampal neurons; test: 30 day BrdU pulse-chase survival assay of newborn hippocampal neurons, dose response; format: in vivo, mouse (C57 Bl/6); details: for increase in survival of newborn neurons: 5 mg/kg/day i.p. for 30 days; for neuroprotective efficacy (increase in survival of newborn neurons): 10 mg/kg/day i.p. for 30 days; for ceiling of efficacy (CoE), increase in survival: 20 or 40 mg/kg/day i.p. for 30 days
Description: FIG. 28. Neuroprotective efficacy of P7C3, P7C3A20 and Dimebon for newborn neurons in the adult hippocampus. Test compounds were evaluated by dose response assay for their ability to block normal apoptotic cell death of newborn neural precursor cells in the adult dentate gyrus. […] P7C3 is intermediate in both measures. 6 animals were tested per group. Dosing is expressed as total mg/day, and compounds were administered intraperitoneally in divided doses twice daily. Data are expressed as mean±SEM. Values for P7C3 and P7C3A20 were compared to those of vehicle (VEH), and values for Dimebon were compared to those of saline (SAL).
In order to more carefully compare the neuroprotective efficacy of these compounds in abetting hippocampal neurogenesis, we conducted dose-response studies in a 30 day BrdU pulse-chase survival assay (FIG. 28). Briefly, newborn cells were labeled with a single intraperitoneal (i.p.) injection of BrdU (150 mg/kg), followed by daily treatment with the three test compounds beginning the following day. After 30 days of compound administration, mice were transcardially perfused with 4% paraformaldehyde, brains were dissected, and immunohistochemical detection of BrdU followed by standard microscopic imaging and normalization for dentate gyrus volume was used to quantify the number of surviving cells.
Because both social activity and voluntary exercise enhance hippocampal neurogenesis, mice were individually housed without access to running wheels throughout the entire procedure, beginning one week prior to bromodeoxyuridine (BrdU, Sigma-Aldrich) labeling of newborn cells. Throughout the study, mice had ad libitum access to food and water. BrdU was injected intraperitoneally at 150 mg/kg i.p., and 24 hours later administration of test compounds or vehicle was initiated. P7C3 and P7C3A20 were dissolved in 5% dextrose (pH 7.0) with 2.5% DMSO and 10% Cremaphor EL (Sigma, C5135). Dimebon was dissolved in normal saline. Compounds were compared to their respective controls, and were tested at 2.5, 5, 10 and 20 mg/kg twice daily (i.p.) for 30 days. The injection site was alternated between right and left sides. Each group consisted of six 12-week-old adult male C57 Bl/6 mice. Animals were monitored daily for general health and weight loss. Cage changes were performed per routine scheduling. After 30 days of compound administration, mice were sacrificed by transcardial perfusion with 4% paraformaldehyde at pH 7.4, and their brains were processed for immunohistochemical detection of incorporated BrdU in the dentate gyrus. Dissected brains were immersed in 4% paraformaldehyde overnight at 4 degrees Celsius, then cryoprotected in sucrose before being sectioned with a Leica SM2000R sliding microtome coronally into […] thick free-floating sections. Unmasking of BrdU antigen was achieved through incubating tissue sections for two hours in 50% formamide/2×SSC at 65 degrees Celsius, followed by five minute wash in 2×SSC and subsequent incubation for thirty minutes in 2M HCl at 37 degrees Celsius. Sections were processed for immunohistochemical staining with mouse monoclonal anti-BrdU (1:100, Roche). Diaminobenzidine was used as a chromagen, and tissue was counter-stained with hematoxylin to aid in visualization of the neuroanatomy. Images were analyzed with a Nikon Eclipse 90i motorized research microscope with Plan Apo lenses coupled with Metamorph Image Acquisition software (Nikon). Quantification of all staining was done blind to treatment group. The number of BrdU+ cells in the entire dentate gyrus was quantified by counting BrdU+ cells within the dentate gyrus in every fifth section throughout the entire hippocampus and then normalizing for dentate gyrus volume.

Compound	lowest amount that prevented TMRM dye release (U2OS cells)	increase in survival of newborn neurons [1]	neuroprotective efficacy (increase in survival of newborn neurons) [1]	ceiling of efficacy (CoE), increase in survival [1]	lowest concentration that blocked TMRM dye release (U2OS cells; U2OS cells)	preservation of mitochondrial membrane potential (U2OS cells; TMRM dye)
OC(CNc1ccccc1)Cn1c2ccc(Br)cc2c2cc(Br)ccc21 (stereo not drawn) [Example 45 Compound]	≤ 10 ng					
OC(CNc1ccccc1)Cn1c2ccc(Br)cc2c2cc(Br)ccc21 (stereo not drawn) [Example P7C3]		neither P7C3 nor Dimebon exhibited any effect	65%	≈ 130%	≤ 10 nM	
COc1cccc(NCC(F)Cn2c3ccc(Br)cc3c3cc(Br)ccc32)c1 (stereo not drawn) [Example P7C3A20, N-(3-(3,6-dibromo-9H-carbazol-9-yl)-2-fluoropropyl)-3-methoxyaniline]		~100%	about 175%	≈ 230%		protection of mitochondrial membrane permeability was observed at an enhanced level; also recorded: exhibited dye release protection at all doses tested
Cc1ccc2c(c1)c1c(n2CCc2ccc(C)nc2)CCN(C)C1 [Dimebon, 2,3,4,5-Tetrahydro-2,8-dimethyl-5-(2-(6-methyl-3-pyridyl)ethyl)-1H-pyrido(4,3-b)indole, reference compound]		neither P7C3 nor Dimebon exhibited any effect	15%	≈ 30%		
